Results from the OPERA property sets (Mansouri et al. 2018).
Converted amounts (≈) assume the structure as drawn.

Settings: 20 °C

Row | Structure (SMILES) | solubility [mM]
1 | O=[N+]([O-])OCC(CO[N+](=O)[O-])O[N+](=O)[O-] | 6.08 (≈ 1.38 mg/mL)
2 | O=C1c2c(O)cccc2[C@H]([C@@H]2O[C@H](CO)[C@@H](O)[C@H](O)[C@H]2O)c2cc(CO)cc(O)c21 | 19.8 (≈ 8.3 mg/mL)
3 | O=C1CC2CC[C@H]1C2 | 17.5 (≈ 1.93 mg/mL)

Same assay, conditions: 23 °C

Row | Structure (SMILES) | solubility [mM]
4 | Nc1ccc(N)cc1 | 342 (≈ 37 mg/mL)

Same assay, conditions: 24 °C

Row | Structure (SMILES) | solubility [mM]
5 | Nc1cccc([N+](=O)[O-])c1 | 8.69 (≈ 1.2 mg/mL)

Same assay, conditions: 25 °C

Row | Structure (SMILES) | solubility [mM]
6 | NC(N)=S | 1870 (≈ 142 mg/mL)
7 | CN1C2CCC1CC(OC(=O)c1ccccc1)C2 (stereo not drawn) | 6.93 (≈ 1.7 mg/mL)
8 | CC(=O)Oc1ccc2c3c1O[C@H]1[C@@H](OC(C)=O)C=C[C@H]4[C@@H](C2)N(C)CC[C@@]341 | 1.61 (≈ 0.595 mg/mL)
9 | Cc1cc(O)c2c(O)c3c(O)cccc3cc2c1 | 0.874 (≈ 0.21 mg/mL)
10 | O=C1C[C@@H]2OCC=C3CN4CC[C@]56c7ccccc7N1[C@H]5[C@H]2[C@H]3C[C@H]46 | 0.478 (≈ 0.16 mg/mL)
11 | CCCCCCCCCCC(C(=O)O)C(=O)O | 0.102 (≈ 0.025 mg/mL)
12 | O=C1NS(=O)(=O)c2ccccc21 | 21.8 (≈ 4 mg/mL)
13 | O=C(O)c1ccccc1Cl | 13.3 (≈ 2.09 mg/mL)
14 | O=C1c2cccc(S(=O)(=O)O)c2C(=O)c2cccc(S(=O)(=O)O)c21 | 1810 (≈ 666 mg/mL)
15 | NC(=O)c1ccccc1 | 111 (≈ 13.5 mg/mL)
16 | O=Cc1cccc([N+](=O)[O-])c1 | 10.8 (≈ 1.63 mg/mL)
17 | O=C(O)c1cccc(Cl)c1 | 2.87 (≈ 0.45 mg/mL)
18 | O=Cc1ccccc1[N+](=O)[O-] | 15.4 (≈ 2.32 mg/mL)
19 | CCN1C[C@]2(COC)[C@H](O)C[C@H](OC)[C@]34C1[C@H]([C@H](OC)[C@H]23)[C@]1(OC(C)=O)[C@H]2[C@@H](OC(=O)c3ccccc3)[C@](O)(C[C@H]24)[C@@H](OC)[C@@H]1O | 0.48 (≈ 0.31 mg/mL)
20 | C=CC=O | 3780 (≈ 212 mg/mL)
21 | O=C1c2cccc(S(=O)(=O)O)c2C(=O)c2c1cccc2S(=O)(=O)O | 18100 (≈ 6660 mg/mL)
22 | CCN(CC)C(=O)CCC(=O)O | 161 (≈ 27.9 mg/mL)
23 | CC[C@H]1C[N@@]2CC[C@H]1C[C@H]2[C@H](O)c1ccnc2ccc(OC)cc12 | 0.888 (≈ 0.29 mg/mL)
